Data published in ChEMBL document CHEMBL5465560, “Selectivity Literature for EUbOPEN Chemogenomic Library” (2024).

Key:
[1] = biological target: SRSF protein kinase 3 (Homo sapiens) (UniProt Q9UPE1); experiment: Selectivity interaction (SelectScreen profiling (Invitrogen)) EUB0000607a SRPK3; settings: at 2 µM
[2] = biological target: G protein-coupled receptor kinase 6 (Homo sapiens) (UniProt P43250); experiment: Selectivity interaction (SelectScreen profiling (Invitrogen)) EUB0000607a GRK6; settings: at 2 µM
Focal adhesion kinase 1 = Focal adhesion kinase 1 (Homo sapiens, UniProt Q05397); experiment: Selectivity interaction (ActivX KiNativ screen (kinase selectivity in THP-1 cell lysates)) EUB0000639a PTK2; type: subcellular; settings: lysate, at 0.04 µM
[3] = biological target: Ribosomal protein S6 kinase beta-1 (Homo sapiens, UniProt P23443); experiment: Selectivity interaction (ActivX KiNativ screen (kinase selectivity in THP-1 cell lysates)) EUB0000639a RPS6KB1; type: subcellular; settings: lysate, at 0.2 µM
[4] = biological target: Tyrosine-protein kinase FRK (Homo sapiens) (UniProt P42685); experiment: Selectivity interaction (ProQinase) EUB0000171b FRK
[5] = biological target: T1, Hormonally up-regulated neu tumor-associated kinase (Homo sapiens) (UniProt P57058); experiment: Selectivity interaction (KinomeScan (DiscoverX)) EUB0000695a HUNK; settings: at 100 nM
T1 sequence (whole entry): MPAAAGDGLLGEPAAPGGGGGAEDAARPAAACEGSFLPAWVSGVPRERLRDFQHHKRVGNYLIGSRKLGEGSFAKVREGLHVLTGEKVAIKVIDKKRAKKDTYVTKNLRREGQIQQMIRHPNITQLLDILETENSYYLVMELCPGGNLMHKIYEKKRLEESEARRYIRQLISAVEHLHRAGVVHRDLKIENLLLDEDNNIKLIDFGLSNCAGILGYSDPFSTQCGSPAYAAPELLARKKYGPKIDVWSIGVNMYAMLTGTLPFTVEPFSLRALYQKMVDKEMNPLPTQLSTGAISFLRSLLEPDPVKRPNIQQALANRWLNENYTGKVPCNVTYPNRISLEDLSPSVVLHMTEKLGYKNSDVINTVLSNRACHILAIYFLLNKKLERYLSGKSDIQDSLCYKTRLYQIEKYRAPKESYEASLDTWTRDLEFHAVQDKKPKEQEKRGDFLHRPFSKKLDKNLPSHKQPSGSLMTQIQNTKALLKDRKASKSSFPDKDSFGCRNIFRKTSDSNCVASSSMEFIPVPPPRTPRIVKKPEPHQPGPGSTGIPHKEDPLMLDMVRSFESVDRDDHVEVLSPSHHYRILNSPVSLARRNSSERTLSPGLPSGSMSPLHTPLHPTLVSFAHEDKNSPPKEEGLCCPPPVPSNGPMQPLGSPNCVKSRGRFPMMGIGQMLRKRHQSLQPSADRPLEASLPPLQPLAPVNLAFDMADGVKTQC

[6] = biological target: Mitogen-activated protein kinase kinase kinase 4 (Homo sapiens) (UniProt Q9Y6R4); experiment: Selectivity interaction (KinomeScan (DiscoverX)) EUB0000595a MAP3K4; settings: at 10 µM
[7] = biological target: Cyclin-dependent kinase 14 (Homo sapiens) (UniProt O94921); experiment: Selectivity interaction (KinomeScan (DiscoverX)) EUB0000655a CDK14; settings: at 10 µM
[8] = Selectivity interaction (KinomeScan (DiscoverX)) EUB0000655a CDK2H; settings: at 10 µM
[9] = biological target: T2, Serine/threonine-protein kinase Chk1 (Homo sapiens) (UniProt O14757); experiment: Selectivity interaction (KinomeScan (DiscoverX)) EUB0000655a CHEK1; settings: at 10 µM
T2 sequence (whole entry): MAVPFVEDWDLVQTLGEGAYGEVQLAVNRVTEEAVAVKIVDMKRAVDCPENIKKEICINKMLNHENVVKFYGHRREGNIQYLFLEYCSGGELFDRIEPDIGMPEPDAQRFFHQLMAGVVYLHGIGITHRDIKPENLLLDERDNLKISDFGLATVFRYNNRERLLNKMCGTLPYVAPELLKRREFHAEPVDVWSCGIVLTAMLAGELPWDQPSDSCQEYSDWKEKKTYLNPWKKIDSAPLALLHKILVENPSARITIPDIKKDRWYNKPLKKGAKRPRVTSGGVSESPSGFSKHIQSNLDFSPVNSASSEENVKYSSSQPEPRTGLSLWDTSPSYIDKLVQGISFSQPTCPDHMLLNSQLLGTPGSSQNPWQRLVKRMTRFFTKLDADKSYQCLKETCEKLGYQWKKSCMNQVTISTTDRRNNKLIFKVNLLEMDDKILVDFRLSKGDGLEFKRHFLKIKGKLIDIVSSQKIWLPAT

[10] = biological target: T3, Activin receptor type-1 (Homo sapiens) (UniProt Q04771); settings: at 10 µM
T3 sequence (whole entry): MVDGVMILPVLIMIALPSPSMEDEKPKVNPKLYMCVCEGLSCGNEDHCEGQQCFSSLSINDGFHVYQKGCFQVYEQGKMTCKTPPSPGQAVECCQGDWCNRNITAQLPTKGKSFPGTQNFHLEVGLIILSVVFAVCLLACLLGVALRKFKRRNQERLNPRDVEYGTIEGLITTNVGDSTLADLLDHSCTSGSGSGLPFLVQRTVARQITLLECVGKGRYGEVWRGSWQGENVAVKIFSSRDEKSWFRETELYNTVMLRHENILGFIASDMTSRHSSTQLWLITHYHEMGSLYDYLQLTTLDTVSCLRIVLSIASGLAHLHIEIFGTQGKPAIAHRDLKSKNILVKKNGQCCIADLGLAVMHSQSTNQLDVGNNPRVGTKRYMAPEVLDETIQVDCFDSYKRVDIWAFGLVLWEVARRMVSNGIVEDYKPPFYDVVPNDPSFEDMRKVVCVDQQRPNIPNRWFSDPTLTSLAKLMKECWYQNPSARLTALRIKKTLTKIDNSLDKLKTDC

[11] = biological target: Proto-oncogene tyrosine-protein kinase ROS (Homo sapiens) (UniProt P08922); experiment: Selectivity interaction (KinomeScan (DiscoverX)) EUB0000618a ROS1; settings: at 10 µM
[12] = biological target: Phosphatidylinositol 4,5-bisphosphate 3-kinase catalytic subunit gamma isoform (Homo sapiens) (UniProt P48736); experiment: Selectivity interaction (KinomeScan (DiscoverX)) EUB0000618a PIK3CG; settings: at 10 µM
Phosphatidylinositol 4,5-bisphosphate 3-kinase catalytic subunit gamma isoform (Homo sapiens), sequence (P48736 whole entry, looked up, canonical isoform): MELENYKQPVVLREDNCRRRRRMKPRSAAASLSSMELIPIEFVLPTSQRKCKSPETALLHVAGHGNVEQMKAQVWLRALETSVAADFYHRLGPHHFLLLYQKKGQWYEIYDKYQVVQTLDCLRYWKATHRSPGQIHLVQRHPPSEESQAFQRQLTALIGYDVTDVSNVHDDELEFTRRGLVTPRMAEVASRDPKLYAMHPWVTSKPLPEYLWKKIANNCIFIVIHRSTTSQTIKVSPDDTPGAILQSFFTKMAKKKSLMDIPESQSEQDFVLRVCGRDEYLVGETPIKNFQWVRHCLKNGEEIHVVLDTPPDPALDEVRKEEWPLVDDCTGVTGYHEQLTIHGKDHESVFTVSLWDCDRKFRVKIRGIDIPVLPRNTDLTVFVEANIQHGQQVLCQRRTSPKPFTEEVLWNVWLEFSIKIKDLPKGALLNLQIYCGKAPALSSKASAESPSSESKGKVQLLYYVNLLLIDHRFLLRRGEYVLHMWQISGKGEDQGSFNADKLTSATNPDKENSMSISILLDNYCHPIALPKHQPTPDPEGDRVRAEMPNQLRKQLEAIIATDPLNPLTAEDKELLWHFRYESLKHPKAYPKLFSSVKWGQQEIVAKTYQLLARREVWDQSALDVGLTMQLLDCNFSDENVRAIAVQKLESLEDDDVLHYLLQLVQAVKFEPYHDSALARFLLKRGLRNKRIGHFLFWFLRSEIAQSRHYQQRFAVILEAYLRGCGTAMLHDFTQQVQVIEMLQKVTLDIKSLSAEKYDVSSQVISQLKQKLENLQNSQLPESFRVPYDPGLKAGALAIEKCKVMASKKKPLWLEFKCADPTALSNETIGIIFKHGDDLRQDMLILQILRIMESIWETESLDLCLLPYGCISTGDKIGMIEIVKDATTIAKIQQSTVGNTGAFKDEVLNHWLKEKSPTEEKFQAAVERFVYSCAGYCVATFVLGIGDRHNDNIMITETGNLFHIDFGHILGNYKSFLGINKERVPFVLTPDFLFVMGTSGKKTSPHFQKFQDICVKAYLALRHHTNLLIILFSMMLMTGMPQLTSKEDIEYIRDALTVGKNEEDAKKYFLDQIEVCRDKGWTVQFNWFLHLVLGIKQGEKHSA

Tyrosine-protein kinase FRK (Homo sapiens), sequence (P42685 whole entry): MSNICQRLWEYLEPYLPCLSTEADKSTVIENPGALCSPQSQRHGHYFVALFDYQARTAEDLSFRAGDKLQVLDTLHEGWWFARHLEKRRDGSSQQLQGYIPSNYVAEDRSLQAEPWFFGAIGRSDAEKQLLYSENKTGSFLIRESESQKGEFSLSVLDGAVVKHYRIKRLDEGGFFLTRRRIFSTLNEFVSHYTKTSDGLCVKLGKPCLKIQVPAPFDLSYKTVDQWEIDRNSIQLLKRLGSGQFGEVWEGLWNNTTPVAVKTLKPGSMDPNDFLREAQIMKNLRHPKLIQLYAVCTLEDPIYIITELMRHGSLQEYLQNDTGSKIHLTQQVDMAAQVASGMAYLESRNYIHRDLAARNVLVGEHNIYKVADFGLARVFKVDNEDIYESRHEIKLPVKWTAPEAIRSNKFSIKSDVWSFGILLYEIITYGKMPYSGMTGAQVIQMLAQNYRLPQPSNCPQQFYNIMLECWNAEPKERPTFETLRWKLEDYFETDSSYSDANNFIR
Focal adhesion kinase 1, sequence (Q05397 2-1052 limits assumed): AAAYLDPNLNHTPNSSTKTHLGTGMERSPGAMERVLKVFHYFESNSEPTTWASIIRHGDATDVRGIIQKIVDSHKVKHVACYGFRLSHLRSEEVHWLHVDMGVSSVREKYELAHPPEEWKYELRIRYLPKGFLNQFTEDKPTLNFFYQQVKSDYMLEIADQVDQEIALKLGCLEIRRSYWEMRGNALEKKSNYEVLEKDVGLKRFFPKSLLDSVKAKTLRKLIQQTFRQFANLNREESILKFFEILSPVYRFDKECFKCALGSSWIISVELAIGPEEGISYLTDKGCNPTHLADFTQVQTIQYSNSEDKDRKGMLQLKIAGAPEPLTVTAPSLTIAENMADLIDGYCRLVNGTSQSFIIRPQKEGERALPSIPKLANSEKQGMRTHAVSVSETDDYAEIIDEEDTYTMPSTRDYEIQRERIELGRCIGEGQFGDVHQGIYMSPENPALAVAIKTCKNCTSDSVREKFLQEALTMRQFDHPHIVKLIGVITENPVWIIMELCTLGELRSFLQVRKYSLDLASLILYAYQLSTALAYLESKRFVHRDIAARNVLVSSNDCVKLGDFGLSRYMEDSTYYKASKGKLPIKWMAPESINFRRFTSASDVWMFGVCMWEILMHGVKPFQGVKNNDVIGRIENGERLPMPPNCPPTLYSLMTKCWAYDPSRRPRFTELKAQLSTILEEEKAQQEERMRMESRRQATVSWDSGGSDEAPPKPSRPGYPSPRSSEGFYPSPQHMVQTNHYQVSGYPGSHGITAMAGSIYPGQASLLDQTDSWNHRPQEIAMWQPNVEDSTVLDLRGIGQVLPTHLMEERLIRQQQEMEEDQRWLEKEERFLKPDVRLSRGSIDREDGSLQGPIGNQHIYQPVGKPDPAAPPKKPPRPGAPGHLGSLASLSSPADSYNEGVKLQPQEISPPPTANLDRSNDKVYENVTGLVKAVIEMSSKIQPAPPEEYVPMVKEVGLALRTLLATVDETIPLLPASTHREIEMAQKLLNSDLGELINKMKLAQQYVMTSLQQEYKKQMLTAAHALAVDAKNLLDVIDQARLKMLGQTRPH
Cyclin-dependent kinase 14 (Homo sapiens), sequence (O94921 whole entry): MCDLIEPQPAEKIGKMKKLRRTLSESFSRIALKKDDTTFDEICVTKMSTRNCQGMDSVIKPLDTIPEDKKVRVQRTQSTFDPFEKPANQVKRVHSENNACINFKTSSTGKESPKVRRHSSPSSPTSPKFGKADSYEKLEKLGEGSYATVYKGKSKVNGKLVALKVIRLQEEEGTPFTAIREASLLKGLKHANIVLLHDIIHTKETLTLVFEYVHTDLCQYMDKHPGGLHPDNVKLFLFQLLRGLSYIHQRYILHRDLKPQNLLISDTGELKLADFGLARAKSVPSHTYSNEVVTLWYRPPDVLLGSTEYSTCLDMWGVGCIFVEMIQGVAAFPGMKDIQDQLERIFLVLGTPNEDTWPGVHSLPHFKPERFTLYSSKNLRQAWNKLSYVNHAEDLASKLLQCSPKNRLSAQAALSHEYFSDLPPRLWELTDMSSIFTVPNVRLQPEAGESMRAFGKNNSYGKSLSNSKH
Ribosomal protein S6 kinase beta-1, sequence (P23443 whole entry, looked up): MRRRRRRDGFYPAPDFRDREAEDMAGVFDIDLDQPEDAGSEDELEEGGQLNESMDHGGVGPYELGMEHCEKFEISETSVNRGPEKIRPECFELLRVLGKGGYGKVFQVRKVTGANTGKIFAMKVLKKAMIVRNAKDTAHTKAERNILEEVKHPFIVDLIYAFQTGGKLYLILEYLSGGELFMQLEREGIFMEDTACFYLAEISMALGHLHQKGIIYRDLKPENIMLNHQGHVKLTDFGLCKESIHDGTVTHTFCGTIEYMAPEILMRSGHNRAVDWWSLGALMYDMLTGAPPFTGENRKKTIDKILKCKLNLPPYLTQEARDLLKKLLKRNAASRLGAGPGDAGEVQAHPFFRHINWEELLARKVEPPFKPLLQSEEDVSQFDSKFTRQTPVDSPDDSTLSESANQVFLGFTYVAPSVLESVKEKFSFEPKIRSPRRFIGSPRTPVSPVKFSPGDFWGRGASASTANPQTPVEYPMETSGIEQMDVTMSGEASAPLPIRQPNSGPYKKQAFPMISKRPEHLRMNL
G protein-coupled receptor kinase 6 (Homo sapiens), sequence (P43250 whole entry, looked up): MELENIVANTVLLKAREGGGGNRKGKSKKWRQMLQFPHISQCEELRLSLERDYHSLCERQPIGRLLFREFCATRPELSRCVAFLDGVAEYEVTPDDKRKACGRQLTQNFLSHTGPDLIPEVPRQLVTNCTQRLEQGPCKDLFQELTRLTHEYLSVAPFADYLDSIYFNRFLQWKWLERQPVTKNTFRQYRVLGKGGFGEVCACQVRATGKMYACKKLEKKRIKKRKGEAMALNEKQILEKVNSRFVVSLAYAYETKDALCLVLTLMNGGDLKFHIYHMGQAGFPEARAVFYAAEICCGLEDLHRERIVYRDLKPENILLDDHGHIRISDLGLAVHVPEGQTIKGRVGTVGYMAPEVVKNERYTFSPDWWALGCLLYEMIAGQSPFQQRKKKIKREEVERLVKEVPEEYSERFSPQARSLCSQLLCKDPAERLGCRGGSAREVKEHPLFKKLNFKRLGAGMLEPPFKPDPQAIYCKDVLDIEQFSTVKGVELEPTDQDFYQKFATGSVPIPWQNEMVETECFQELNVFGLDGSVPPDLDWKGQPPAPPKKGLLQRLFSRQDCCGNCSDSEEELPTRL
SRSF protein kinase 3 (Homo sapiens), sequence (Q9UPE1 whole entry): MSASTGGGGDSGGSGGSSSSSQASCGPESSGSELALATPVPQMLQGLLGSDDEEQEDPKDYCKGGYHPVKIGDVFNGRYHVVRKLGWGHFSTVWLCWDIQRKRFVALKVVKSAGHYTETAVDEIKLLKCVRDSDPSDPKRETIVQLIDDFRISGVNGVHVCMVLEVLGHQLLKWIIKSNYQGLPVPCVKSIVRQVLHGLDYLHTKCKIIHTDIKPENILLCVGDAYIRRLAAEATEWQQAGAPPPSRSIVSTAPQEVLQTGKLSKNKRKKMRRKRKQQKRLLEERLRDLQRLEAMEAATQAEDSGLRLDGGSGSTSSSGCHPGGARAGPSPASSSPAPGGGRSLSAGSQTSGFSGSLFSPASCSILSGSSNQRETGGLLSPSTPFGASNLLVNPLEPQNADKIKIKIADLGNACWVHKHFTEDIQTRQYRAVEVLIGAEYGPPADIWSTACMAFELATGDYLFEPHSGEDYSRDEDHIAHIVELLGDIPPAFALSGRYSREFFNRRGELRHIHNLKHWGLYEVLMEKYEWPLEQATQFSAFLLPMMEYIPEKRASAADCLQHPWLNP

In the case of CNC(=O)Nc1ccc(-c2nc(N3CC4CCC(C3)O4)c3cnn(C4CCC5(CC4)OCCO5)c3n2)cc1, the % of inhibition [1] is reported as 6% and the % of inhibition [2] is reported as -1%.
CC[C@@H]1[C@H](F)C(=O)N[C@@H]1COc1nccc2cc(C(N)=O)c(OC)cc12 [ZIMLOVISERTIB] gave a % of inhibition (Focal adhesion kinase 1) of -20.7% and a % of inhibition [3] of -6.2%.
Work on C=CC(=O)Nc1cccc(C(=O)Nc2ccc(Nc3cc(-c4[nH]c(SC)nc4C)ccn3)cc2)c1 yielded a % of control ([4]; at 1 µM) of 99% and a % of control ([4]; at 5 µM) of 75%.
In the case of Cc1cc(F)c(C(=O)Nc2cccc(-c3nncn3C(C)C)n2)cc1-n1cnc(C2CC2)c1, the % of control [5] is reported as 100%.
With COCC(=O)NC/C=C/c1ccc2ncnc(Nc3ccc(Oc4ccc(C)nc4)c(C)c3)c2c1 [CP-724714] the % of control [6] was 97%.
For CN(C)CCOc1ccc(-c2nc(-c3ccncc3)c(-c3ccc4c(c3)CC/C4=N\O)[nH]2)cc1, the % of control [7] was 100%, the % of control [8] was 86% and the % of control [9] was 80%.
For Cc1cc([C@@H](C)Nc2ccccc2C(=O)O)c2nc(N3CCOCC3)cc(=O)n2c1 [AZD-6482], the % of control [10] was 98%.
For O[C@H]1CC[C@H](Nc2ncc3nc(Nc4c(F)cc(F)cc4F)n([C@H]4CCOC4)c3n2)CC1, the % of control [11] was 95% and the % of control [12] was 100%.
